# Assays:
# Mak^Mvan [1] = target: T1, Mak^Mvan (Mycolicibacterium austroafricanum, UniProt A1TH50); test: X-ray crystal structure, […] Å; assay type: binding; set-up: full length (model Thr2-Gly441), C-terminal linker and His-tag kept, 454 residues in all; pET30a, NdeI/HindIII, E. coli; monomer; conditions: co-crystallised with 4 mM AppCp, two Mg2+; nucleotide site, two conformations
# Mak^Mvan [2] = target: T1, Mak^Mvan
# [3] = system: Nc1nc2c(ncn2[C@@H]2O[C@H](COP(=O)(O)OP(=O)(O)OP(=O)(O)O)[C@@H](O)[C@H]2O)c(=O)[nH]1; test: purified protein; assay type: biochemical, Mycolicibacterium austroafricanum; conditions: pH 7.5; 30.0 °C
# T1 sequence (A1TH50 whole entry): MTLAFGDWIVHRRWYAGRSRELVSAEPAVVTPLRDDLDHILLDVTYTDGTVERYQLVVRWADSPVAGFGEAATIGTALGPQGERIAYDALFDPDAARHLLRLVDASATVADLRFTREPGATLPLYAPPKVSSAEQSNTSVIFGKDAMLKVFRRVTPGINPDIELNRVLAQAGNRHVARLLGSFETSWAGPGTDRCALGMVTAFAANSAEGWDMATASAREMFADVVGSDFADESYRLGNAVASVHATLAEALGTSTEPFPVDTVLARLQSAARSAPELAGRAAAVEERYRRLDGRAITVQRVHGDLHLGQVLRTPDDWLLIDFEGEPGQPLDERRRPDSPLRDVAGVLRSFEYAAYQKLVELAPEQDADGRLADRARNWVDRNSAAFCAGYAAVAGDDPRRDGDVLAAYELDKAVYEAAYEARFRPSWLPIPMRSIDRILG
compound,measurement,setting,value
"Nc1ncnc2c1ncn2[C@@H]1O[C@H](COP(=O)(O)OP(=O)(O)CP(=O)(O)O)[C@@H](O)[C@H]1O [AppCp, adenosine-5′-[(β,γ)-methyleno] triphosphate]","X-ray crystal structure, 1.15 Å",Mak^Mvan [1],structure of Mak^Mvan in complex with the non-hydrolysable ATP analog
Nc1ncnc2c1ncn2[C@@H]1O[C@H](COP(=O)(O)OP(=O)(O)OP(=O)(O)O)[C@@H](O)[C@H]1O [ATP],"X-ray crystal structure, 1.71 Å",Mak^Mvan [2],4WZY (Mak^Mvan:ATP complex)
(Mycolicibacterium vanbaalenii PYR-1),Km,[3],5.8 ± 1.4 mM

# Reference: PMC4306142, “Structure of mycobacterial maltokinase, the missing link in the essential GlgE-pathway” (Scientific Reports, 2015)
